Entries after “also recorded” stand apart in the source; their conditions may differ.
What was measured:
HT-22 cells [1] = assay: TNFα-induced ROS; type: cell-based, mouse; settings: for effect on TNFα-induced ROS, in words / ROS suppression at 40 μM: 1 μg/mL TNFα; for effect on TNFα-induced ROS, in words: all concentrations tested; for ROS suppression at 40 μM: 40 μM compound, Figure 4A
THP-1 cells = assay: Measurement of cellular NAD+ levels in THP-1 cell cultures; type: cell-based, human; settings: for ability to raise NAD+ levels compared with parent NP-A3-B2: initial screening, 3 μM, 24 h, data not shown
NAMPT = NAMPT (Homo sapiens, UniProt P43490); assay: NAMPT coupled enzyme activity assay; type: biochemical
Sequence of NAMPT (P43490 whole entry): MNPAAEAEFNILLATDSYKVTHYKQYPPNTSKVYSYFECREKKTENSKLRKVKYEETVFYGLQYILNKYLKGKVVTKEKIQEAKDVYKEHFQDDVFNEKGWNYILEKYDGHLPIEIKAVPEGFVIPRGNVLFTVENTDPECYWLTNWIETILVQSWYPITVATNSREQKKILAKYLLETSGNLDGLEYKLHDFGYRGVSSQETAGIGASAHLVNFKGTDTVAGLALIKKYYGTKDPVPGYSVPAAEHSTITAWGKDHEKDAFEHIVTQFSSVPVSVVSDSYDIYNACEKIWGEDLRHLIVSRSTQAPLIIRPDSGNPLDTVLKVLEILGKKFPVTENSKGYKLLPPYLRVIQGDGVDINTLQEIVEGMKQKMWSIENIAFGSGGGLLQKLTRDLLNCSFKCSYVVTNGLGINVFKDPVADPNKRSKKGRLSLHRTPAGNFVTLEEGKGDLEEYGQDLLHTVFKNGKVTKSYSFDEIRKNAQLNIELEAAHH

HT-22 cells [2] = assay: Glutamate-induced ROS; type: cell-based, mouse; settings: 75 mM glutamate, 20 μM and 40 μM compound, Figure 4D

Q: `COc1ccc(CN(CCC2(C(C)C)CCOC(C)(C)C2)C(=O)c2ccsc2)cc1` (stereo not shown) [JGB-1-127] was tested. Which “effect on TNFα-induced ROS, in words” value (HT-22 cells [1]) did it give?
A: Its value is “did not inhibit ROS generation”.

Q: What does the source list for `CC(C)C1(CCN(Cc2ccc3[nH]ccc3c2)C(=O)c2ccco2)CCOC(C)(C)C1` (stereo not shown) [JGB-1-134]?
A: ability to raise NAD+ levels compared with parent NP-A3-B2 (THP-1 cells): significantly greater ability to raise NAD^+ levels; effect on TNFα-induced ROS, in words (HT-22 cells [1]): did not inhibit ROS generation

Q: `COc1ccc(CN(CCC2(C(C)C)CCOC(C)(C)C2)C(=O)c2cccs2)cc1` (stereo not shown) [JGB-1-137] was tested. Which “ROS suppression at 40 μM” value (HT-22 cells [1]) did it give?
A: Its value is “significantly suppressed ROS”.

Q: For `COc1ccc(CN(CCC2(C(C)C)CCOC(C)(C)C2)C(=O)c2cnc[nH]2)cc1` (stereo not shown) [JGB-1-147], which “NAMPT enzyme activity, in words” value (NAMPT) is on record?
A: The value was “inhibitory activity; also recorded: inhibits NAMPT”.

Q: How did the “concentration response for FK866 in the presence of compound” value (THP-1 cells; THP-1 NAD+, Figure 3B) turn out when `CC(C)C1(CCN(Cc2ccc(N(C)C)cc2)C(=O)c2ccco2)CCOC(C)(C)C1` (stereo not shown) [JGB-1-155] was run?
A: The value was “right-shifted”.

Q: And the “potency in THP-1 cell cultures relative to NP-A3-B2” value (THP-1 cells; full concentration-response, NAD+)?
A: Its value is “improved potency”.

Q: What about the “ability to raise NAD+ levels compared with parent NP-A3-B2” value (THP-1 cells) of the same compound?
A: Its value is “significantly greater ability to raise NAD^+ levels”.

Q: And the “ROS levels under glutamate insult” value (HT-22 cells [2])?
A: Its value is “decreased ROS levels below that of the vehicle-treated control”.

Q: And the “ROS suppression at 40 μM” value (HT-22 cells [1])?
A: Its value is “significantly suppressed ROS”.

Q: And the “reduction of TNFα-induced ROS, confirmation assay” value (HT-22 cells [1]; 20 μM and 40 μM compound, Figure 4B)?
A: The value was “significant reduction”.

Q: How did the “ROS suppression at 40 μM” value (HT-22 cells [1]) turn out when `COc1ccc(CN(CCC2(C(C)C)CCOC(C)(C)C2)C(=O)c2ccco2)cc1` (stereo not shown) [NP-A3-B2] was run?
A: Its value is “significantly suppressed ROS”.

Q: `O=C(NCc1ccncc1)Nc1ccc(S(=O)(=O)N2CC3CCC(C2)O3)cc1` [SBI-797812, reference compound] was tested. Which “effect on TNFα-induced ROS, in words” value (HT-22 cells [1]) did it give?
A: Its value is “no significant effect on ROS”.

From publication PMC10860701 (ACS Medicinal Chemistry Letters, 2024)
